Where “and” joins values, the source holds several entries; their conditions need not be identical. Equal values may be shown once.
Experiments:
[1] = test system: human adipose-derived stem cells (hADSCs); experiment: sGAG formation (DMMB analysis) in hADSCs cultured in wells coated with or without hyaluronic acid; assay type: cell-based; settings: day 7, standardized with DNA
Experimental: Sulfated glycosaminoglycan (sGAG) is a major extracellular matrix of articular cartilage. In order to test whether simvastatin can promote the expression of sGAG in human adipose-derived stem cells (hADSCs) and its optimal concentration, the present invention first prepared hyaluronic acid (HA) coated wells by coating hyaluronic acid dissolved in 1 ml of phosphate buffer (PBS, 1% w/w) on a 24-well plate, standing at 37° C. for 48 hours, then washed with PBS two times. Human adipose-derived stem cells were seeded in wells containing 500 μl of basal medium at a density of 1×10^5 cells per well, wherein the basal medium contains Dulbecco's modified Eagle's medium (DMEM), and was additionally supplemented with 5% fetal bovine serum (FBS), 1% nonessential amino acids and 100 U/ml of penicillin/streptomycin (Gibco-BRL, Grand Island, N.Y.). During the culturing period, simvastatin at different concentrations (0.1 to 1 μM) was added to the well plate, and the medium was replaced with fresh one every two days. On day 7 after the cultivation started, cells were collected for dimethylmethylene blue (DMMB) analysis with Blyscan sulfated glycosaminoglycan reagent (Biocolor, Antrim, UK), and for standardization of sulfated glycosaminoglycan (sGAG) formation with DNA.

Sox-9 = experiment: real-time PCR, chondrogenic gene Sox-9 in hADSCs in HA-coated or non-coated wells; assay type: cell-based, human; settings: 1 μM simvastatin, with or without 1% HA coating, 1 to 5 days
Experimental: (§1) Human adipose-derived stem cells (hADSCs) were cultured in wells coated with hyaluronic acid (HA) and without hyaluronic acid (non-HA), and treated with or without 1 μM of simvastatin (SIM) for 1 to 5 days. […]
(§2) Cells were harvested on designated days and analyzed for the expression of BMP-2 and chondrogenic genes using real-time PCR. […] Real-time PCR reactions were performed and monitored by using iQTM SYBR Green® supermix (Bio-Rad Laboratories Inc, Hercules, Calif.) and a quantitative real-time PCR detection system (Bio-Rad Laboratories Inc, Hercules, Calif.). […] The expression level of each of the target genes, as previously described, was calculated as 2-ΔΔCt. For each gene of interest, four readings were performed for each of the experimental samples, each experiment was repeated for at least three times. […]

aggrecan = experiment: real-time PCR, chondrogenic gene aggrecan in hADSCs in HA-coated or non-coated wells; assay type: cell-based, human; settings: 1 μM simvastatin, with or without 1% HA coating, 1 to 5 days
Experimental: as §1, §2

Col II = experiment: real-time PCR, chondrogenic gene Col II in hADSCs in HA-coated or non-coated wells; assay type: cell-based, human; settings: 1 μM simvastatin, with or without 1% HA coating, 1 to 5 days
Experimental: as §1, §2

BMP-2 = experiment: real-time PCR, BMP-2 gene expression in hADSCs in HA-coated or non-coated wells; assay type: cell-based, human; settings: relative to Non-HA group day 1 = 1, simvastatin 1 μM, HA 1%
Experimental: Human adipose-derived stem cells (hADSCs) were cultured in wells coated with hyaluronic acid (HA) and without hyaluronic acid (non-HA), and treated with or without 1 μM of simvastatin (SIM) for 1 to 5 days. The present invention was therefore divided into four experimental groups: (1) No hyaluronic acid (Non-HA) group: human adipose-derived stem cells were cultured in wells not coated with hyaluronic acid and not treated with simvastatin (1 μM); (2) No hyaluronic acid plus simvastatin (Non-HA+Sim) group: human adipose-derived stem cells were cultured in wells not coated with hyaluronic acid but treated with simvastatin (1 μM); (3) Hyaluronic acid (HA) group: human adipose-derived stem cells were cultured in wells coated with hyaluronic acid but not treated with simvastatin (1 μM); and (4) Hyaluronic acid plus simvastatin (HA+Sim) group: human adipose-derived stem cells were cultured in wells coated with hyaluronic acid and treated with simvastatin (1 μM).
Cells were harvested on designated days and analyzed for the expression of BMP-2 and chondrogenic genes using real-time PCR. Total RNA of these cells was extracted by following the manufacturer's instructions and using TRIzol reagent (Gibco BRL, Rockville, Md.). In short, a reaction volume of 20 μl was taken which contained 0.5 to 1 μg of total RNA, and then RNA was reverse-transcribed into cDNA by using the SuperScript First-Strand Synthesis System (Invitrogen). Real-time PCR reactions were performed and monitored by using iQTM SYBR Green® supermix (Bio-Rad Laboratories Inc, Hercules, Calif.) and a quantitative real-time PCR detection system (Bio-Rad Laboratories Inc, Hercules, Calif.). […] The expression level of each of the target genes, as previously described, was calculated as 2-ΔΔCt. For each gene of interest, four readings were performed for each of the experimental samples, each experiment was repeated for at least three times. […]

osteocalcin = experiment: real-time PCR, osteocalcin gene expression in hADSCs in HA-coated or non-coated wells; assay type: cell-based, human; settings: day 1 to day 5; relative to Non-HA group day 1 = 1; simvastatin 1 μM
Experimental: as §1, §2

What does the source list for `CCC(C)(C)C(=O)O[C@H]1C[C@@H](C)C=C2C=C[C@H](C)[C@H](CC[C@@H]3C[C@@H](O)CC(=O)O3)[C@H]21` [simvastatin]?
expression level of sGAG ([1]; absence of hyaluronic acid (Non-HA), simvastatin 0.1 μM): 0.5 µg/µg; expression level of sGAG ([1]; absence of hyaluronic acid (Non-HA), simvastatin 0.5 μM): 0.5 µg/µg; expression level of sGAG ([1]; absence of hyaluronic acid (Non-HA), simvastatin 1 μM): 0.7 µg/µg; expression level of sGAG ([1]; presence of 1% hyaluronic acid, simvastatin 0.1 μM): 1.3 µg/µg; expression level of sGAG ([1]; presence of 1% hyaluronic acid, simvastatin 0.5 μM): 2.5 µg/µg; expression level of sGAG ([1]; presence of 1% hyaluronic acid, simvastatin 1 μM): 2.8 µg/µg; expression of chondrogenic gene Sox-9 (Sox-9): failed to effectively enhance; expression of chondrogenic gene aggrecan (aggrecan): failed to effectively enhance; expression of chondrogenic gene Col II (Col II): failed to effectively enhance; expression of BMP-2 gene (BMP-2; day 1): 1.2 fold; expression of BMP-2 gene (BMP-2; day 3): 0.8 fold; expression of BMP-2 gene (BMP-2; day 5, listed as Non-HA+Sim): 1.1 fold and 2.1 fold; expression of osteocalcin gene (osteocalcin): significantly increased

Source: patent publication US20180169136A1, “USE OF PHARMACEUTICAL COMPOSITION IN PREPARATION OF DRUG FOR PROMOTING CHONDROCYTE GENERATION” (KAOHSIUNG MEDICAL UNIVERSITY, priority 2015, published 2018)
